This is an account of results in patent publication US20160221974A1, “SODIUM CHANNEL MODULATORS FOR THE TREATMENT OF PAIN AND DIABETES” (CHROMOCELL CORPORATION, priority 2013, published 2016).

The subject of data set [1] is Formalin Test (pain behaviors). As to the kind of experiment: Formalin Test (pain behaviors). Format: in vivo, rat. Particulars: relative to vehicle control; 75 mg/kg, oral route.
In the next data set the target is T1, CYP3A4 (Homo sapiens, UniProt P08684).
T1 construct: purchased Invitrogen
T1 sequence (P08684 2-503 limits assumed): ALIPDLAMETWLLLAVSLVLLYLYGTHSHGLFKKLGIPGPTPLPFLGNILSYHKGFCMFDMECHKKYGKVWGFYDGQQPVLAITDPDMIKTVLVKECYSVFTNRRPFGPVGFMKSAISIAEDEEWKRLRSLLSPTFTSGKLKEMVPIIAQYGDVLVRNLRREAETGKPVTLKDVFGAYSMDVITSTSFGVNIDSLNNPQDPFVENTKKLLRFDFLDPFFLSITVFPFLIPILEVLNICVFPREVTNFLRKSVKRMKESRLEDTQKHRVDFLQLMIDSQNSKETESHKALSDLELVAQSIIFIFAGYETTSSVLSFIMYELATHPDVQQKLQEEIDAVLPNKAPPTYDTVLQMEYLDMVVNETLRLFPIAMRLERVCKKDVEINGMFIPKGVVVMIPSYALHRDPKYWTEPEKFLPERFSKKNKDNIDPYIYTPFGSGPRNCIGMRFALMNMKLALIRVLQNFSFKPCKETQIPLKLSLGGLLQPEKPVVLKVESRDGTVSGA
Kind of data set: In-Vitro Cytochrome P450 (CYP450) Inhibition Assay (Vivid CYP450). The data set is classed as in vitro ADME. Conditions: CYP3A4 enzyme complex (Vivid CYP450, Invitrogen), 6 μM test concentration. Here is the method: We evaluated interaction of drug candidates with cytochrome P450 enzymes which are a major determinant of drug clearance via oxidative metabolism using a high throughput compatible, fluorescence based CYP450 screening assay (Vivid® CYP450, Invitrogen) according to manufacturer's directions.
In brief, test compounds at four different concentrations (μM—6.0, 2.0, 0.7, 0.2), a positive control (Ketoconazole) and a solvent control were incubated at room temperature in unique wells of a 96-well microtiter plate with CYP3A4 enzyme complex for 20 minutes. A pre-read fluorescence (Ex−485 nm/Em−530 nm) was measured at the start of the incubation using a Tecan Safire^2 microplate reader-monochromator to determine background fluorescence. At the end of the incubation period, enzyme substrate and co-enzyme were added and the reaction was kinetically monitored for 1 hour by measuring fluorescence every minute. Effect of test compounds on inhibition of CYP3A4 metabolism of provided substrate was determined by calculating the ratio of the effective reaction rate in presence of test compound to that in the absence of inhibitor.

Data set [2] concerns Partial Sciatic Nerve Ligation (PSNL) model. Kind of data set: Partial Sciatic Nerve Ligation (PSNL) model, behavioral tests. Format: in vivo, male Sprague-Dawley rats. Conditions: 30 mg/kg intraperitoneal, measured 30-60 minutes post dose. An excerpt:
250-350 g male Sprague-Dawley rats from appropriate animal resources were anesthetized with 2.5% isoflurane. A hind leg was shaved, and the skin was sterilized with 0.5% iodine and 75% alcohol. All surgical instruments were sterilized before surgery and between animals. An incision (1 cm) was made at the middle of the thigh in parallel with the muscle and sciatic nerve distribution. The muscle was exposed and dissected at the joint of two muscles (biceps femoris) indicated by the light colored (white) fascia line. The sciatic nerve was just beneath the muscle and was hooked out using an 18-20 G feeding needle (90 degree curved); the sciatic nerve was flat on the feeding needle and approximately one-half the diameter of the nerve is tightly ligated with 7-0 silk suture. A response of the injured leg twitch indicates the success of ligation. After checking hemostasis, bupivicaine 0.1-0.2 ml (0.125%) was given at the incision area, the muscle and the adjacent fascia are closed with 5-0 absorbable sutures. The skin was sutured with absorbable suture and tissue glue. The control group using sham surgery animals (about 8-10 animals) underwent the same surgical procedure but with no nerve ligation. Animals were returned to their home cage after recovery from anesthesia.
The analgesic effect of the test compound was expressed as a percent recovery (% Recovery) relative to the sham control group baseline and calculated according to the formula:
% Recovery=100%−{[(sham mean−test compound mean)/(sham mean−vehicle mean)]×100%}
wherein “sham mean” refers to average score in the sham-operated group; “test compound mean” refers to average score in the PSNL-group (animals with partial sciatic nerve ligation) or diabetic group (animals treated with STZ) treated with a test compound; “vehicle mean” refers to average score in the PSNL-group or diabetic group treated with vehicle only. The above formula was used to obtain data for the following in vivo behavioral tests.
The following behavioral tests were conducted (i.e., plantar test, paw pressure test, and von Frey test) started on day 3 and thereafter once weekly following surgery or use of a diabetic inducer. […]
(§1) Rats were placed on the glass surface of a thermal testing apparatus (Model 336, IITC/Life Science Instruments, Woodland Hills, Calif.) and were allowed to acclimate for 10 min before testing on the glass surface at room temperature. […] The paw withdrawal latency was recorded by a digital timer. The thermal threshold was determined as the mean withdrawal latency from two to three consecutive trials of both hindpaws. […]
Animals were placed under clear plastic boxes above a wire mesh floor, which allowed full access to the paws. […] Mechanical paw withdrawal thresholds (PWTs) were measured with the up-down testing paradigm. […]

For the next data set, the target named is T2, NaV1.7 (Homo sapiens, UniProt Q15858).
T2 construct: expressed in transfected cells
T2 sequence (Q15858 whole entry): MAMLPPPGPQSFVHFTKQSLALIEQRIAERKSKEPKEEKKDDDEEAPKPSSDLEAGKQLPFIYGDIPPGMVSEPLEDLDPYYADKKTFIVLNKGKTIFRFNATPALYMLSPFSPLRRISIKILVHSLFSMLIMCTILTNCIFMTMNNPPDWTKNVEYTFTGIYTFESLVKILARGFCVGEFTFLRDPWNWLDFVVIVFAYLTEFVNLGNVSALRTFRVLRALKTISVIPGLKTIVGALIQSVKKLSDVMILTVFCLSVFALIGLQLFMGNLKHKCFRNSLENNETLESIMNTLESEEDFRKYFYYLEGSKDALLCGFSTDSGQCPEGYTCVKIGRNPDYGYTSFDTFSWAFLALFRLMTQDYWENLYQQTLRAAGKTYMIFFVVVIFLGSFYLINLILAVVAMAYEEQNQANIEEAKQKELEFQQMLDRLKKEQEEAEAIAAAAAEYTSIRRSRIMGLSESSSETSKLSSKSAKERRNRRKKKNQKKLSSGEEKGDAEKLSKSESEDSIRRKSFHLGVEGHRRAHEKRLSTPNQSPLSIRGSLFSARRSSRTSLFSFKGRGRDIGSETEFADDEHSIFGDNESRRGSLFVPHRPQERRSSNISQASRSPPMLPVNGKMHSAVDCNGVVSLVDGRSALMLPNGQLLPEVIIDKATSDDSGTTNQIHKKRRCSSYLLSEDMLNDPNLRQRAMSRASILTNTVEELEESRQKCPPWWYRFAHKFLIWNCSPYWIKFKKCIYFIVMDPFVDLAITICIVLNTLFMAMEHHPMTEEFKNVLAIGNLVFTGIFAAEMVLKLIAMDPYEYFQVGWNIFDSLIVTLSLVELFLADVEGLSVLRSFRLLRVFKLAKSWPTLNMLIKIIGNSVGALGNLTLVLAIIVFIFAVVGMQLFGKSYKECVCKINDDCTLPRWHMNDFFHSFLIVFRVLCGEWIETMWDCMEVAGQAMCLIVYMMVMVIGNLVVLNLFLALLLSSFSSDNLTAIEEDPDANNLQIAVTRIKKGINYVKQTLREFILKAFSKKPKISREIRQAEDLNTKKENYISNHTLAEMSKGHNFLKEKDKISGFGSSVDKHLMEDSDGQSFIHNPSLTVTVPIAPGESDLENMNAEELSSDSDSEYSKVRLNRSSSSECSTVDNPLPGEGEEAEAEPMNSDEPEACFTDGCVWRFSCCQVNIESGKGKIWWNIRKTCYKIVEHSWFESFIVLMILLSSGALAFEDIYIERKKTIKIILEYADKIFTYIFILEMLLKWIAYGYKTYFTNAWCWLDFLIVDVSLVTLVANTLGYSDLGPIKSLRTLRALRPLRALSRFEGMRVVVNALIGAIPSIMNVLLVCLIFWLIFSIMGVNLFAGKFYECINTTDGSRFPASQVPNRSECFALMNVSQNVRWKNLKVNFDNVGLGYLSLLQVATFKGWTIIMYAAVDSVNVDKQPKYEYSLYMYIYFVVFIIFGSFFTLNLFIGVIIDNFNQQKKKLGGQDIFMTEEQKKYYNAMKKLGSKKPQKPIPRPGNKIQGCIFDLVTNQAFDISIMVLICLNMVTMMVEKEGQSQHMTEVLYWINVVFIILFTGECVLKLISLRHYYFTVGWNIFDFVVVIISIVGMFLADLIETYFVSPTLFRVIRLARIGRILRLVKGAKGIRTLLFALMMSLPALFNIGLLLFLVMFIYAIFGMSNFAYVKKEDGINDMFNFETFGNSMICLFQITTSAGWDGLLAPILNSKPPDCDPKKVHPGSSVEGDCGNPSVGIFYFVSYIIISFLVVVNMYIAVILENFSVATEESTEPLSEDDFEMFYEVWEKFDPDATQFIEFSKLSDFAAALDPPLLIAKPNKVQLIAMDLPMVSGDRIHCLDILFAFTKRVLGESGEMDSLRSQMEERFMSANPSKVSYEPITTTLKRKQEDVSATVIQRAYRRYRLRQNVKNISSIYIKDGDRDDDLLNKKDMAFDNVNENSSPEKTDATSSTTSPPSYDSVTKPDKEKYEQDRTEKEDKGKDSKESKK
T2 sequence (Q07699 19-218 partner): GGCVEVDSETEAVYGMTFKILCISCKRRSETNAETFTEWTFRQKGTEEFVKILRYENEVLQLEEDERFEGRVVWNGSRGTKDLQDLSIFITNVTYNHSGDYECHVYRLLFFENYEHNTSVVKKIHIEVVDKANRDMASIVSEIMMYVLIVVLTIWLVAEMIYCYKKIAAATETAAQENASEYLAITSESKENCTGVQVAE
T2 sequence (O60939 30-215 partner): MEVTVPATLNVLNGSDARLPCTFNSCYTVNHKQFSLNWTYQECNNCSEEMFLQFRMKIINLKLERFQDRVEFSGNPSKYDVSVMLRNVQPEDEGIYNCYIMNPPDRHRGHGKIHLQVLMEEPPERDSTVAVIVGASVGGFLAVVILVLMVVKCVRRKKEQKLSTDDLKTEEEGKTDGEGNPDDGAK
As to the kind of experiment: Patchliner Electrophysiological In-Vitro Assay (NaV1.7). Particulars: Patchliner patch clamp, HEK293, holding at V1/2. Format: cell-based. A digest of the protocol: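 Automated whole-cell patch clamp at room temperature on HEK293 cells stably expressing hNav1.7 with β1 and β2 subunits. Inactivated-state Ki: cells held at their own V1/2, stepped to −120 mV for 5–10 ms, then to Vmax for 10–20 ms, repeated every 10 s; dose-dependent inhibition analysed.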

Another data set has as its target T3, hNaV1.7 (Homo sapiens, UniProt Q15858).
T3 construct: expressed in transfected cells
Kind of data set: FDSS Membrane Potential In-Vitro Assay. Format: cell-based. Particulars: stimulation with veratridine and scorpion venom, read-out: NaV1.7 IC50.

For data set [3], the system named is Acetic Acid Writhing Model. Kind of data set: Writhing Model (Inflammatory Abdominal Pain), rats. The data set is classed as in vivo. Particulars: relative to vehicle control, doses of 10 to 30 mg/kg intraperitoneal route. Here is the method:
The Acetic Acid Writhing Model is associated with visceral pain (abdominal pain, such as stomach pain, and pain caused by, for example, bile duct congestion and kidney stones). A writhing test assesses acute peritoneovisceral pain. After acclimation of 2-3 days, a test compound, positive control or vehicle control was administered by intraperitoneal injection (i.p.) or by oral gavage 15-30 minutes prior to administration of acetic acid. The time of administration of test compound was recorded. For mice: Method A: 0.6% Acetic acid solution in saline was injected i.p. in a volume of 10 ml/kg; Method B: 1.2% Acetic acid solution in saline was injected i.p. in a volume of 5 ml/kg. For rats: 4% acetic acid in saline was injected i.p in a volume of 2 ml/kg at T=0 minutes. Each animal was placed in a clear plastic cage. At T=5 minutes, the number of writhing movements was counted over a 45 minute period. Alternatively, the writhing movements were counted over a 5-minute period and repeated every 5 minutes, starting at T=5 minutes over a 45-minute period. For each compound tested, the individual score was obtained by calculating the accumulated writhing movements for the time period studied. […]

Data set [4] has as its system streptozotocin (STZ)-induced diabetic model. Kind of data set: Streptozotocin (STZ)-Induced Model of Diabetic Neuropathy, behavioral tests. Conditions: 30 mg/kg, measured 30 minutes post dose. The data set is classed as in vivo, male Sprague-Dawley rats. Here is the method:
250-350 g male Sprague-Dawley rats from appropriate animal resources were used. Type I diabetes was induced by a single injection, (intraperitoneally, intravenously or intramuscularly) of 50-100 mg/kg of streptozotocin (STZ, Sigma Chemicals, St. Louis, Mo. or VWR) freshly dissolved in sodium citrate (0.01 M, pH 4.5). Sham animals were given either saline or same vehicle injection. Following a wait time of about two days, inducement of diabetes was confirmed in STZ-injected rats by measuring the plasma glucose concentrations in blood samples from the tail vein after a fast of 6 hours. […] Other parameters (water intake, food intake, and bodyweight) were monitored before the treatment with a test compound and after the cessation of the treatment.
The analgesic effect of the test compound was expressed as a percent recovery (% Recovery) relative to the sham control group baseline and calculated according to the formula: […]
as §1

T3 sequence (Q15858 whole entry): as the sequence (Q15858 whole entry) above
T3 sequence (Q07699 19-218 partner): as the sequence (Q07699 19-218 partner) above
T3 sequence (O60939 30-215 partner): as the sequence (O60939 30-215 partner) above

Regarding `O=C(O)CCNC(=O)c1cc(-c2cc(Cl)ccc2Oc2cc(F)c(S(=O)(=O)Nc3ncns3)cc2Cl)ccn1` [Compound 1, 3-(4-(2-(4-(N-(1,2,4-thiadiazol-5-yl)sulfamoyl)-2-chloro-5-fluorophenoxy)-5-chlorophenyl)picolinamido)propanoic acid], in data set [1], the “reduction in pain response (formalin assay phase 2)” value was determined as 17% and the “reduction in pain response (formalin assay, phase 1)” value stood at 14%. This molecule also came in with an inhibition at 1 hour, 6 µM at CYP3A4 of 50 to 100%. Also, the “effect in the tactile allodynia test” value in data set [2] is “no significant effect”. At NaV1.7, the IC50 is less than 100 nM. Besides, the half-inhibitory concentration (IC50) at hNaV1.7 was less than 130 nM.
`O=C(O)CNC(=O)c1cc(-c2cc(Cl)ccc2Oc2cc(F)c(S(=O)(=O)Nc3ncns3)cc2Cl)ccn1` [Compound 2, 2-(4-(2-(4-(N-(1,2,4-thiadiazol-5-yl)sulfamoyl)-2-chloro-5-fluorophenoxy)-5-chlorophenyl)picolinamido)acetic acid] yielded an inhibition at 1 hour, 6 µM against CYP3A4 of 50 to 100%. For the same molecule, the “reduction in pain (writhing)” value in data set [3] is on record as 48-58%. The “effect in the tactile allodynia test” value in data set [2] is “no significant effect”. For the same molecule, the IC50 is less than 100 nM on NaV1.7 and less than 130 nM at hNaV1.7.
On CYP3A4, `O=C(O)CCNCCCc1cc(Cl)ccc1Oc1cc(F)c(S(=O)(=O)Nc2cscn2)cc1Cl` [Compound 15, 3-((3-(5-chloro-2-(2-chloro-5-fluoro-4-(N-(thiazol-4-yl)sulfamoyl)phenoxy)phenyl)propyl)amino)propanoic acid] had an inhibition at 1 hour, 6 µM of 0 to 25%. For the same molecule, the “effect in the tactile allodynia test” value in data set [4] is listed as “no significant effect”. Further, the results for the IC50 on NaV1.7 and on hNaV1.7 were less than 100 nM and 130 to 1000 nM, respectively.
